Source: US9024019B2, “Insecticidal triazinone derivatives” (Syngenta Participations AG, priority 2011, dated 2015)

SMILES	melting point
CO/N=C/C1=NNC(=O)N(/N=C/c2cccnc2)C1	237 to 238 °C
CO/N=C/C1=NNC(=O)N(/N=C/c2cncc(F)c2)C1	226 to 227 °C
CO/N=C(\C)C1=NNC(=O)N(/N=C/c2cccnc2)C1	230 to 231 °C
CCO/N=C/C1=NNC(=O)N(/N=C/c2cccnc2)C1	233 to 234 °C
CN(C)/N=C/C1=NNC(=O)N(/N=C/c2cccnc2)C1	229 °C (dec.)
O=C1NN=C(C2=NOC(C(F)(F)F)(C(F)(F)F)C2)CN1/N=C/c1cccnc1	270 °C (dec.)
O=C1NN=C(C2=NOC(C(F)(F)F)(C(F)(F)F)C2)CN1/N=C/c1cncc(F)c1	290 °C (dec.)

Continued, values first:

melting point	SMILES
229 °C (dec.)	CO/N=C/C1=NNC(=O)N(/N=C/c2ccc[n+]([O-])c2)C1
244 to 245 °C	CO/N=C/C1=NNC(=O)N(/N=C/c2cncnc2)C1
233 to 234 °C	CO/N=C/C1=NNC(=O)N(/N=C/c2cnccn2)C1
212 °C (dec.)	CC1(C)CC(C2=NNC(=O)N(/N=C/c3cccnc3)C2)=NO1
260 °C (dec.)	CC1(C)CC(C2=NNC(=O)N(/N=C/c3cncc(F)c3)C2)=NO1
